Measured values: the NIST ThermoML archive (doi:10.1021/acs.jced.8b00067)
Where “and” joins values, the source holds several entries; their conditions need not be identical. Equal values may be shown once.

What was measured:
[1] = 101.3 kPa, Liquid, Vibrating tube method
[2] = xn = mol fraction of the nth substance listed; details: 101.3 kPa, Liquid, Vibrating tube method

ClCCCl [1,2-dichloroethane]
[1]
Details | mass density
288.15 K | 1260.35 kg/m3
298.15 K | 1245.75 kg/m3 and 1245.76 kg/m3
308.15 K | 1231.16 kg/m3
318.15 K | 1216.56 kg/m3

ClCCCl [1,2-dichloroethane] + C1COCCO1
mass density [kg/m3], [2]
Details | 288.15 K | 298.15 K | 308.15 K | 318.15 K
x2 = 0 | 1260.35 | 1245.75 | 1231.16 | 1216.56
x2 = 0.05 | 1247.73 | 1233.53 | 1219.2 | 1204.74
x2 = 0.15 | 1223.15 | 1209.44 | 1195.6 | 1181.63
x2 = 0.25 | 1199.18 | 1185.91 | 1172.52 | 1159.01
x2 = 0.35 | 1175.98 | 1163.09 | 1150.11 | 1137.01
x2 = 0.45 | 1153.2 | 1140.69 | 1128.08 | 1115.36
x2 = 0.5 | 1142.13 | 1129.79 | 1117.34 | 1104.79
x2 = 0.55 | 1131.22 | 1119.02 | 1106.74 | 1094.34
x2 = 0.65 | 1109.63 | 1097.72 | 1085.72 | 1073.62
x2 = 0.75 | 1088.81 | 1077.13 | 1065.38 | 1053.55
x2 = 0.85 | 1068.59 | 1057.12 | 1045.59 | 1033.98
x2 = 0.95 | 1048.8 | 1037.49 | 1026.13 | 1014.72

ClCCCl [1,2-dichloroethane] + CC(C)O
mass density [kg/m3], [2]
Details | 288.15 K | 298.15 K | 308.15 K | 318.15 K
x2 = 0 | 1260.35 | 1245.75 | 1231.16 | 1216.56
x2 = 0.05 | 1235.77 | 1221.42 | 1206.94 | 1192.32
x2 = 0.15 | 1188.35 | 1174.26 | 1160 | 1145.58
x2 = 0.25 | 1141.45 | 1127.77 | 1113.89 | 1099.81
x2 = 0.35 | 1094.84 | 1081.66 | 1068.25 | 1054.61
x2 = 0.45 | 1048.69 | 1036.08 | 1023.22 | 1010.09
x2 = 0.5 | 1025.43 | 1013.12 | 1000.56 | 987.72
x2 = 0.55 | 1001.94 | 989.96 | 977.71 | 965.17
x2 = 0.65 | 955.61 | 944.31 | 932.73 | 920.85
x2 = 0.75 | 908.94 | 898.38 | 887.54 | 876.36
x2 = 0.849 | 862.18 | 852.45 | 842.41 | 832.03
x2 = 0.949 | 814.66 | 805.84 | 796.72 | 787.26
x2 = 0.95 | 814.18 | 805.36 | 796.25 | 786.79

ClCCCl [1,2-dichloroethane] + CCCO
mass density, [2]
Details | 288.15 K | 298.15 K | 308.15 K | 318.15 K
x2 = 0 | 1260.35 kg/m3 | 1245.75 kg/m3 | 1231.16 kg/m3 | 1216.56 kg/m3
x2 = 0.026 | 1248.39 kg/m3 | 1234.01 kg/m3 | 1219.5 kg/m3 | 1204.86 kg/m3
x2 = 0.05 | 1237.53 kg/m3 and 1237.37 kg/m3 | 1223.22 kg/m3 and 1223.08 kg/m3 | 1208.79 kg/m3 and 1208.64 kg/m3 | 1194.22 kg/m3 and 1194.08 kg/m3
x2 = 0.1 | 1215.38 kg/m3 | 1201.26 kg/m3 | 1187.01 kg/m3 | 1172.6 kg/m3
x2 = 0.122 | 1205.69 kg/m3 | 1191.67 kg/m3 | 1177.5 kg/m3 | 1163.18 kg/m3
x2 = 0.149 | 1193.33 kg/m3 | 1179.47 kg/m3 | 1165.44 kg/m3 | 1151.24 kg/m3
x2 = 0.25 | 1149.08 kg/m3 | 1135.78 kg/m3 | 1122.28 kg/m3 | 1108.59 kg/m3
x2 = 0.35 | 1104.87 kg/m3 | 1092.18 kg/m3 | 1079.29 kg/m3 | 1066.19 kg/m3
x2 = 0.45 | 1060.3 kg/m3 | 1048.27 kg/m3 | 1036.04 kg/m3 | 1023.57 kg/m3
x2 = 0.55 | 1015.43 kg/m3 | 1004.09 kg/m3 | 992.55 kg/m3 | 980.78 kg/m3
x2 = 0.645 | 972.3 kg/m3 | 961.66 kg/m3 | 950.81 kg/m3 | 939.73 kg/m3
x2 = 0.75 | 924.58 kg/m3 | 914.71 kg/m3 | 904.65 kg/m3 | 894.38 kg/m3
x2 = 0.85 | 878.59 kg/m3 | 869.49 kg/m3 | 860.21 kg/m3 | 850.73 kg/m3
x2 = 0.899 | 855.66 kg/m3 | 846.93 kg/m3 | 838.05 kg/m3 | 828.97 kg/m3
x2 = 0.95 | 831.69 kg/m3 | 823.36 kg/m3 | 814.89 kg/m3 | 806.24 kg/m3
x2 = 0.974 | 820.39 kg/m3 | 812.24 kg/m3 | 803.95 kg/m3 | 795.49 kg/m3
x2 = 0.975 | 819.73 kg/m3 | 811.6 kg/m3 | 803.33 kg/m3 | 794.89 kg/m3

C1COCCO1 [1,4-dioxane]
[1]
Details | mass density [kg/m3]
288.15 K | 1039.12
298.15 K | 1027.84
308.15 K | 1016.57
318.15 K | 1005.29

C1COCCO1 [1,4-dioxane] + CC(C)O
mass density [kg/m3], [2]
Details | 288.15 K | 298.15 K | 308.15 K | 318.15 K
x1 = 0.05 | 802.95 | 794.39 | 785.56 | 776.41
x1 = 0.15 | 829.25 | 820.23 | 810.98 | 801.46
x1 = 0.25 | 855.23 | 845.83 | 836.22 | 826.38
x1 = 0.35 | 880.71 | 870.97 | 861.05 | 850.93
x1 = 0.449 | 905.45 | 895.43 | 885.24 | 874.87
x1 = 0.5 | 918.21 | 908.04 | 897.73 | 887.25
x1 = 0.55 | 930.47 | 920.18 | 909.74 | 899.16
x1 = 0.651 | 955.14 | 944.61 | 933.97 | 923.2
x1 = 0.75 | 979.12 | 968.37 | 957.54 | 946.6
x1 = 0.85 | 1003.42 | 992.5 | 981.49 | 970.39
x1 = 0.95 | 1027.3 | 1016.17 | 1004.99 | 993.74
x1 = 1 | 1039.12 | 1027.84 | 1016.57 | 1005.29

C1COCCO1 [1,4-dioxane] + CCCO
mass density, [2]
Details | 288.15 K | 298.15 K | 308.15 K | 318.15 K
x1 = 0.05 | 820.78 kg/m3 | 812.62 kg/m3 | 804.33 kg/m3 | 795.88 kg/m3
x1 = 0.15 | 846.12 kg/m3 | 837.54 kg/m3 | 828.82 kg/m3 | 819.95 kg/m3
x1 = 0.249 | 870.65 kg/m3 | 861.62 kg/m3 | 852.49 kg/m3 | 843.22 kg/m3
x1 = 0.35 | 894.72 kg/m3 and 894.75 kg/m3 | 885.38 kg/m3 and 885.41 kg/m3 | 875.91 kg/m3 and 875.94 kg/m3 | 866.3 kg/m3 and 866.33 kg/m3
x1 = 0.45 | 918.23 kg/m3 | 908.54 kg/m3 | 898.73 kg/m3 | 888.78 kg/m3
x1 = 0.496 | 928.74 kg/m3 | 918.89 kg/m3 | 908.94 kg/m3 | 898.85 kg/m3
x1 = 0.55 | 941.07 kg/m3 and 941.11 kg/m3 | 931.06 kg/m3 and 931.09 kg/m3 | 920.95 kg/m3 and 920.97 kg/m3 | 910.71 kg/m3 and 910.73 kg/m3
x1 = 0.65 | 963.51 kg/m3 | 953.2 kg/m3 | 942.79 kg/m3 | 932.28 kg/m3
x1 = 0.75 | 985.54 kg/m3 and 985.58 kg/m3 | 974.94 kg/m3 and 974.98 kg/m3 | 964.26 kg/m3 and 964.29 kg/m3 | 953.5 kg/m3 and 953.51 kg/m3
x1 = 0.849 | 1006.97 kg/m3 | 996.12 kg/m3 | 985.2 kg/m3 | 974.19 kg/m3
x1 = 0.948 | 1028.13 kg/m3 | 1017.05 kg/m3 | 1005.9 kg/m3 | 994.68 kg/m3
x1 = 0.95 | 1028.45 kg/m3 | 1017.36 kg/m3 | 1006.21 kg/m3 | 995 kg/m3
x1 = 1 | 1039.12 kg/m3 | 1027.84 kg/m3 | 1016.57 kg/m3 | 1005.29 kg/m3

C1COCCO1 [1,4-dioxane] + ClCCCl
[2], x1 = 1
Details | mass density [kg/m3]
288.15 K | 1039.12
298.15 K | 1027.84
308.15 K | 1016.57
318.15 K | 1005.29

CCCO [propan-1-ol]
[1]
Details | mass density [kg/m3]
288.15 K | 807.86
298.15 K | 799.78
308.15 K | 791.71
318.15 K | 783.64

CCCO [propan-1-ol] + C1COCCO1
[2], x2 = 0
Details | mass density [kg/m3]
288.15 K | 807.86
298.15 K | 799.78
308.15 K | 791.71
318.15 K | 783.64

CCCO [propan-1-ol] + ClCCCl
[2], x1 = 1
Details | mass density [kg/m3]
288.15 K | 807.86
298.15 K | 799.78
308.15 K | 791.71
318.15 K | 783.64

CC(C)O [propan-2-ol]
[1]
Details | mass density [kg/m3]
288.15 K | 789.68
298.15 K | 781.08
308.15 K | 772.48
318.15 K | 763.88

CC(C)O [propan-2-ol] + C1COCCO1
[2], x2 = 0
Details | mass density [kg/m3]
288.15 K | 789.68
298.15 K | 781.08
308.15 K | 772.48
318.15 K | 763.88

CC(C)O [propan-2-ol] + ClCCCl
[2], x1 = 1
Details | mass density [kg/m3]
288.15 K | 789.68
298.15 K | 781.08
308.15 K | 772.48
318.15 K | 763.88
